Key:
[1] = system: dd-strain male mice; experiment: Acute toxicity test; type: in vivo; settings: orally administered, mortality for 7 days
Method: A test compound was orally administered to three dd-strain male mice weighting 20±1 g. The minimum lethal dose (MLD) was determined by observing the mortality for 7 days after the administration.

[2] = system: calvaria; experiment: Activity of inhibiting bone absorption (PTH-intensified calcium release from cultured calvaria); type: cell-based, dd mouse; settings: Mus musculus, human PTH 1-34 1×10^-8 M, 96 hours, read-out: Inhibition Rate
Method: A calvaria of a 5 to 6 day-old dd mouse was aseptically cut off, washed with Dulbecco's modified phosphate buffered saline not containing calcium and magnesium (manufactured by Gibco Oriental Co.) and separated along the sutura of its center. One half of the calvaria so separated was cultured in 1.5 ml of Dulbecco's modified Eagle medium (manufactured by Gibco Oriental Co.) containing 15% of thermally inactivated (at 56° C. for 20 minutes) horse serum and 2.5% of fetal calf serum. The test compound was dissolved in dimethyl sulfoxide, and 10 μl (final concentration: 1×10^-4 M or 1×10-^5 M) of the solution so prepared was added to the culture. Parathyroid hormone (human PTH 1-34, manufactured by Sigma Co.) was dissolved in 0.15 M sodium chloride solution (pH 3), and 3 μl (final concentration: 1×10^-8 M) of the solution so prepared was added to the culture. The cultivation was carried out for 96 hours at 37° C. in an atmosphere consisting of 95% of air and 5% of carbon dioxide. The culture medium was once replaced with a fresh one after 48 hours from the beginning of the cultivation. The concentration of dissolved calcium (i.e., absorption of bone) from the PTH-intensified bone was determined by measuring the quantity of calcium accumulated in the culture collected in 96 hours of cultivation, whereby the concentration of total calcium contained in the culture was measured with Calcium C-Test Wako (manufactured by Wako Pure Chemicals Co., Ltd.), and the inhibition rate was calculated therefrom in accordance with the equation set forth below. [formula] Cd : Total calcium concentration in the culture treated with both test compound and PTH
Cp : Total calcium concentration in the culture treated with PTH alone
Co Total calcium concentration in the culture treated with neither test compound nor PTH

[3] = system: cells obtained from the spleen of Balb/c mice sensitized with sheep red blood cells; experiment: Plaque Forming Cell Assay (inhibition of antibody production); type: cell-based, Balb/c strain male mice; settings: for inhibition at 100 µM / inhibition at 10 µM: Mus musculus, Erythrocyte, inhibition of antibody production, read-out: Inhibition Rate
Method: The method developed by Jerne [Science, 140, 405 (1963)] and Yamamoto, et al [Drugs. Exptl. Clin. res., 8, 5 (1982)] were modified for plaque forming cell assay.
That is, Balb/c strain male mice (age of 7 weeks, Charles River Japan Inc.) were sensitized with 1×10^8 sheep red blood cells (Bio Test Research Institute) and the spleen was extirpated on the sixth or seventh day. The cells obtained from the spleen were treated with ACT solution (Tris-ammonium chloride isotonic buffer) to remove red blood cells. The cells were washed three times with RPMI-1640 medium (Nissui Pharmaceutical Co. . The cells (1×10^7) were incubated in RPMI-1640 medium containing 10% calf fetal serum (Gibco Co.), 50 μg/ml streptomycin, 50 IU/ml of penicillin, 2-mercaptoethanol (5×10^-5 M), sheep red blood cells (5×10^6 cells) and a test compound dissolved in dimethyl sulfoxide supplied on a microculture plate (NUNC Co., 24 wells) in a carbon dioxide gas incubator (TABAI ESPEC CORP) at 37° C. for 5 days.
After completion of the incubation, the cells were transferred to a plastic test tube and centrifuged at 2000 rpm. After the supernatant was removed, the cells were resuspended in 1 ml of RPMI-1640 medium. The cell suspension was sealed in a Cunnigham chamber (Takahashi Giken Co.) together with sheep red blood cells and guinea pig complement (Cedarlane Research Institute) according to the method of Cunnigham [Immunology, 14, 599 (1968)] and incubated at 37° C. for 1 to 2 hours. Direct plaque forming cell (PFC) count was counted.
A rate of inhibiting antibody production by the test compound was determined by the following equation. [formula] A : PFC count in the absence of test compound (dimethylsulfoxide alone) B : PFC count in the presence of test compound

Compound | minimum lethal dose (MLD) [1] | inhibition at 10 µM [2] | inhibition at 100 µM [2] | Direct PFC Count (mean ± S.E.M.) ([3]; 10^-4 M) | Direct PFC Count (mean ± S.E.M.) ([3]; 10^-5 M) | inhibition at 100 µM ([3]; 10^-4 M) | inhibition at 10 µM ([3]; 10^-5 M)
O=C(Nc1ccncc1)c1c(O)c2ccsc2[nH]c1=O [Compound 7, 6,7-Dihydro-4-hydroxy-6-oxo-N-(4-pyridyl)thieno[2,3-b]-pyridine-5-carboxamide] | > 300 mg/kg | 32% | – | – | – | – | –
O=C(Nc1ccncc1)c1c(O)c2sccc2[nH]c1=O [Compound 2, 4,5-Dihydro-7-hydroxy-5-oxo-N-(4-pyridyl)thieno[3,2-b]-pyridine-6-carboxamide] | – | – | 51% | – | – | – | –
O=C(Nc1cccnc1)c1c(O)c2ccsc2[nH]c1=O [Compound 8, 6,7-Dihydro-4-hydroxy-6-oxo-N-(3-pyridyl)thieno[2,3-b]-pyridine-5-carboxamide] | – | 18% | – | – | – | – | –
CCCCn1c(=O)c(C(=O)Nc2ccncc2)c(O)c2sccc21 [Compound 3, 4-(n-Butyl)-4,5-dihydro-7-hydroxy-5-oxo-N-(4-pyridyl)thieno-[3,2-b]pyridine-6-carboxamide] | – | 141% | – | 101 ± 76 | 59 ± 38 | 98% | 98.8%
O=C(Nc1cccnc1)c1c(O)c2sccc2[nH]c1=O [Compound 1, 4,5-Dihydro-7-hydroxy-5-oxo-N-(3-pyridyl)thieno[3,2-b]-pyridine-6-carboxamide] | – | – | -1% | – | – | – | –
CCCCn1c(=O)c(C(=O)Nc2ccncc2)c(O)c2ccsc21 [Compound 5, 7-(n-Butyl)-6,7-dihydro-4-hydroxy-6-oxo-N-(4-pyridyl)thieno-[2,3-b]pyridine-5-carboxamide] | – | 53% | – | 109 ± 77 | 227 ± 131 | 97.8% | 95.5%
CCCCn1c(=O)c(C(=O)Nc2cccnc2)c(O)c2ccsc21 [Compound 6, 7-(n-Butyl)-6,7-dihydro-4-hydroxy-6-oxo-N-(3-pyridyl)thieno-[2,3-b]pyridine-5-carboxamide] | – | 38% | – | 42 ± 29 | 59 ± 29 | 99.2% | 98.8%
CCCCn1c(=O)c(C(=O)Nc2cccnc2)c(O)c2sccc21 [Compound 4, 4-(n-Butyl)-4,5-dihydro-7-hydroxy-5-oxo-N-(3-pyridyl)thieno-[3,2-b]pyridine-6-carboxamide] | > 300 mg/kg | 58% | – | 336 ± 124 | 395 ± 52 | 93.3% | 92.1%
